Numbered stars: 1 amine (or outer) side, 2 acyl side, 3 side chain; on linkers, the order of the positions; unused ones are H or OH. Square brackets hold non-standard residues; d marks the D form. Side chains are listed from the residue outwards. Peptide text beside a SMILES is read from it. * marks the point of attachment. C18 diacid = O=C(O)CCCCCCCCCCCCCCCCC(=O)*; γGlu = O=C(O)[C@H](CCC(=O)[*:2])N[*:1]; AEEA = NCCOCCOCC(=O)O
biological target: glucagon receptor (Homo sapiens, UniProt P47871); assay: cell-based
Sequence (P47871 26-477): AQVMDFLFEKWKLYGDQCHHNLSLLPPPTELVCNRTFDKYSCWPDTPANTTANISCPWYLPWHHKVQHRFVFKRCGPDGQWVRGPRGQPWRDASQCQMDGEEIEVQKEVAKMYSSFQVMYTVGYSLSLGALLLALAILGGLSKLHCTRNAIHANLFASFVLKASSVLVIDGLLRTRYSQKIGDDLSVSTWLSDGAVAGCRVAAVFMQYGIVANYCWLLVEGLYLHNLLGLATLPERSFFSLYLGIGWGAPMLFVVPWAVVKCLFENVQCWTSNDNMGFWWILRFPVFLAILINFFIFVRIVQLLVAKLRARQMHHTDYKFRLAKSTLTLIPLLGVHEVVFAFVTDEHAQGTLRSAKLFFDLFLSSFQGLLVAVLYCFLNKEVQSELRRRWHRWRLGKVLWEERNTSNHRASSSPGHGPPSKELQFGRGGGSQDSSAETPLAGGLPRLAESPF
Procedure: The cells (14000 per well) were incubated (37° C., 5% CO2) overnight in 384-well plates. Next day the cells were loaded with a calcium responsive dye that only distributed into the cytoplasm. Probenecid, an inhibitor of the organic anion transporter, was added to prevent the dye from leaving the cell. A PDE inhibitor was added to prevent formatted cAMP from being degraded. […] End point data were collected after 6 minutes. An increase in intracellular cAMP was proportional to an increased in calcium concentrations in the cytoplasm. […] EC50-values were calculated in Prism5.

SMILES | EC50
CC(C)C[C@H](NC(=O)[C@H](Cc1ccc(O)cc1)NC(=O)[C@H](CCCCN)NC(=O)[C@H](CO)NC(=O)[C@H](Cc1ccc(O)cc1)NC(=O)[C@H](CC(=O)O)NC(=O)[C@H](CO)NC(=O)[C@@H](NC(=O)[C@H](Cc1ccccc1)NC(=O)[C@@H](NC(=O)CNC(=O)[C@H](CCC(N)=O)NC(=O)[C@H](CO)NC(=O)[C@@H](N)Cc1c[nH]cn1)[C@@H](C)O)[C@@H](C)O)C(=O)N[C@@H](CC(=O)O)C(=O)N[C@@H](CO)C(=O)N[C@@H](CCCNC(=N)N)C(=O)N[C@@H](CCCNC(=N)N)C(=O)N[C@@H](C)C(=O)N[C@@H](CCC(=O)O)C(=O)N[C@@H](CCC(=O)O)C(=O)N[C@@H](Cc1ccccc1)C(=O)N[C@H](C(=O)N[C@@H](CCCCNC(=O)CC[C@H](NC(=O)CC[C@H](NC(=O)COCCOCCNC(=O)CC[C@H](NC(=O)CCCCCCCCCCCCCCCCC(=O)O)C(=O)O)C(=O)O)C(=O)O)C(=O)N[C@@H](Cc1c[nH]c2ccccc12)C(=O)N[C@@H](CC(C)C)C(=O)N[C@@H](CC(C)C)C(=O)N[C@@H](CO)C(=O)N[C@H](C(=O)O)[C@@H](C)O)C(C)C [Example 93, N^ε24-[(4S)-4-carboxy-4-[[(4S)-4-carboxy-4-[[2-[2-[2-[[(4S)-4-carboxy-4-(17-carboxyheptadecanoylamino)butanoyl]amino]ethoxy]ethoxy]acetyl]amino]butanoyl]amino]butanoyl]-[Glu^20,Glu^21,Lys^24,Leu^27,Ser^28]-Glucagon] (H-HSQGTFTSDYSKYLDSRRAEEFVK([γGlu-γGlu-AEEA-γGlu-C18 diacid])WLLST-OH) | 0.12 nM
CC(C)C[C@H](NC(=O)[C@H](Cc1ccc(O)cc1)NC(=O)[C@H](CCCCN)NC(=O)[C@H](CO)NC(=O)[C@H](Cc1ccc(O)cc1)NC(=O)[C@H](CC(=O)O)NC(=O)[C@H](CO)NC(=O)[C@@H](NC(=O)[C@H](Cc1ccccc1)NC(=O)[C@@H](NC(=O)CNC(=O)[C@H](CCC(N)=O)NC(=O)[C@H](CO)NC(=O)[C@@H](N)Cc1c[nH]cn1)[C@@H](C)O)[C@@H](C)O)C(=O)N[C@@H](CC(=O)O)C(=O)N[C@@H](CO)C(=O)N[C@@H](CCCNC(=N)N)C(=O)N[C@@H](CCCNC(=N)N)C(=O)N[C@@H](C)C(=O)N[C@@H](CCCCNC(=O)CC[C@H](NC(=O)CC[C@H](NC(=O)COCCOCCNC(=O)COCCOCCNC(=O)CC[C@H](NC(=O)CCCCCCCCCCCCCCCCC(=O)O)C(=O)O)C(=O)O)C(=O)O)C(=O)N[C@@H](CC(=O)O)C(=O)N[C@@H](Cc1ccccc1)C(=O)N[C@H](C(=O)N[C@@H](CCC(N)=O)C(=O)N[C@@H](Cc1c[nH]c2ccccc12)C(=O)N[C@@H](CC(C)C)C(=O)N[C@@H](CC(C)C)C(=O)N[C@@H](CC(N)=O)C(=O)N[C@H](C(=O)O)[C@@H](C)O)C(C)C [Example 98, N^ε20-[(4S)-4-carboxy-4-[[(4S)-4-carboxy-4-[[2-[2-[2-[[2-[2-[2-[[(4S)-4-carboxy-4-(17-carboxyheptadecanoylamino)butanoyl]amino]ethoxy]ethoxy]acetyl]amino]ethoxy]ethoxy]acetyl]amino]butanoyl]amino]butanoyl]-[Lys^20,Leu^27]-Glucagon] | 0.058 nM
CC(C)C[C@H](NC(=O)[C@H](Cc1ccc(O)cc1)NC(=O)[C@H](CCCCN)NC(=O)[C@H](CO)NC(=O)[C@H](Cc1ccc(O)cc1)NC(=O)[C@H](CC(=O)O)NC(=O)[C@H](CO)NC(=O)[C@@H](NC(=O)[C@H](Cc1ccccc1)NC(=O)[C@@H](NC(=O)[C@@H](Cc1ccccc1)NC(=O)[C@H](CCC(N)=O)NC(=O)[C@H](CO)NC(=O)[C@@H](N)Cc1c[nH]cn1)[C@@H](C)O)[C@@H](C)O)C(=O)N[C@@H](CC(=O)O)C(=O)N[C@@H](CO)C(=O)N[C@@H](CCCNC(=N)N)C(=O)N[C@@H](CCCNC(=N)N)C(=O)N[C@@H](C)C(=O)N[C@@H](CCC(N)=O)C(=O)N[C@@H](CC(=O)O)C(=O)N[C@@H](Cc1ccccc1)C(=O)N[C@H](C(=O)N[C@@H](CCCCNC(=O)CC[C@H](NC(=O)CC[C@H](NC(=O)COCCOCCNC(=O)COCCOCCNC(=O)CC[C@H](NC(=O)CCCCCCCCCCCCCCCCC(=O)O)C(=O)O)C(=O)O)C(=O)O)C(=O)N[C@@H](Cc1c[nH]c2ccccc12)C(=O)N[C@@H](CC(C)C)C(=O)N[C@@H](CC(C)C)C(=O)N[C@@H](CO)C(=O)N[C@H](C(=O)O)[C@@H](C)O)C(C)C [Example 99, N^ε24-[(4S)-4-carboxy-4-[[(4S)-4-carboxy-4-[[2-[2-[2-[[2-[2-[2-[[(4S)-4-carboxy-4-(17-carboxyheptadecanoylamino)butanoyl]amino]ethoxy]ethoxy]acetyl]amino]ethoxy]ethoxy]acetyl]amino]butanoyl]amino]butanoyl]-[D-Phe4,Lys24,Leu27,Ser28]-Glucagon] (H-HSQ[dF]TFTSDYSKYLDSRRAQDFVK([γGlu-γGlu-AEEA-AEEA-γGlu-C18 diacid])WLLST-OH) | 0.044 nM
CC(C)C[C@H](NC(=O)[C@H](Cc1ccc(O)cc1)NC(=O)[C@H](CCCCN)NC(=O)[C@H](CO)NC(=O)[C@H](Cc1ccc(O)cc1)NC(=O)[C@H](CC(=O)O)NC(=O)[C@H](CO)NC(=O)[C@@H](NC(=O)[C@H](Cc1ccccc1)NC(=O)[C@@H](NC(=O)CNC(=O)[C@H](CCC(N)=O)NC(=O)[C@H](CO)NC(=O)[C@@H](N)Cc1c[nH]cn1)[C@@H](C)O)[C@@H](C)O)C(=O)N[C@@H](CC(=O)O)C(=O)N[C@@H](CCCCNC(=O)CC[C@H](NC(=O)CC[C@H](NC(=O)COCCOCCNC(=O)COCCOCCNC(=O)CC[C@H](NC(=O)CCCCCCCCCCCCCCCCC(=O)O)C(=O)O)C(=O)O)C(=O)O)C(=O)N[C@@H](CCCNC(=N)N)C(=O)N[C@@H](CCCNC(=N)N)C(=O)N[C@@H](C)C(=O)N[C@@H](CCC(N)=O)C(=O)N[C@@H](CCC(=O)O)C(=O)N[C@@H](Cc1ccccc1)C(=O)N[C@H](C(=O)N[C@@H](CCC(N)=O)C(=O)N[C@@H](CCCNC(=N)N)C(=O)N[C@@H](CC(C)C)C(=O)N[C@@H](CC(C)C)C(=O)N[C@@H](CC(N)=O)C(=O)N[C@H](C(=O)O)[C@@H](C)O)C(C)C [Example 100, N^ε16-[(4S)-4-carboxy-4-[[(4S)-4-carboxy-4-[[2-[2-[2-[[2-[2-[2-[[(4S)-4-carboxy-4-(17-carboxyheptadecanoylamino)butanoyl]amino]ethoxy]ethoxy]acetyl]amino]ethoxy]ethoxy]acetyl]amino]butanoyl]amino]butanoyl]-[Lys^16,Glu^21,Arg^25,Leu^27]-Glucagon] (H-HSQGTFTSDYSKYLDK([γGlu-γGlu-AEEA-AEEA-γGlu-C18 diacid])RRAQEFVQRLLNT-OH) | 0.45 nM

— patent US20160271263A1 (Novo Nordisk A/S, priority 2010, published 2016)
